A value given as a limit tells only on which side of the number the result lay.

The test system of the test is NLRP3. In words: IL-1β Assay in THP1 Cells (LPS priming + nigericin, NLRP3 activation). It is filed as cell-based. The conditions noted are these: Homo sapiens, THP-1; THP1 cells primed with 100 ng/mL LPS, 10 μM nigericin 3 hours; IL-1β released in supernatant; read-out: IL-1b (IC50). Here is the method:
Example 10: IL-1β Assay in THP1 Cells
THP1 cells were primed with 100 ng/mL LPS in test medium (RPMI1640+GlutaMAX+25 mM HEPES+10% HI FBS+1% Pen/Strep) overnight at 37° C. and 5% CO2. Compounds were serially diluted in test medium and added to 200 000 cells/well for 1 hour at 37° C. and 5% CO2. After 1 hour, nigericin was added at 10 μM final concentration and incubated in at 37° C. and 5% CO2 for 3 hours to induce NLRP3 activation. IL-1β released from THP1 was detected in the cell supernatant by the ELLA (Simple Plex, Bio-Techne) Human IL-1β Immunoassays. The average of the positive control (LPS+nigericin) and the negative control (LPS alone) was calculated. The % inhibition of each test well was calculated by the following formula: % inhibition per well=[(average of positive control−single well signal value)/(average of positive control−average of negative control)]*100%. The compound inhibition curve was fitted by using a four-parameter logistic dose response equation: compound concentration was converted into logarithm base 10, and its concentration and % inhibition is imported into Graphpad prism software.
The IC50 is the concentration that inhibits the measured activity by half. Take `CCN1CCC[C@@H]([C@@H](O)c2cc(C)c(-c3ccc(C(F)(F)F)cc3)nn2)C1` [Compound 29, (R)-((R)-1-ethylpiperidin-3-yl)(5-methyl-6-(4-(trifluoromethyl)phenyl)pyridazin-3-yl)methanol]: the IC50 was less than 500 nM.

As to `CCN1CCCC(C(O)c2cc(C)c(-c3ccc4occc4c3)nn2)C1` (stereo not drawn) [Compound 17, (6-(benzofuran-5-yl)-5-methylpyridazin-3-yl)(1-ethylpiperidin-3-yl)methanol], the IC50 is less than 500 nM. For `CCN1CCCC(C(O)c2cc(C)c(-c3ccc4cc[nH]c4c3)nn2)C1` (stereo not drawn) [Compound 12, (6-(1H-indol-6-yl)-5-methylpyridazin-3-yl) (1-ethylpiperidin-3-yl) methanol] the value was less than 500 nM. For `Cc1cc([C@H](O)[C@@H]2CCCN(C)C2)nnc1-c1ccc(C(F)(F)F)cc1OC(F)F` [Compound 31, (R)-(6-(2-(difluoromethoxy)-4-(trifluoromethyl)phenyl)-5-methylpyridazin-3-yl)((R)-1-methylpiperidin-3-yl)methanol] the value was less than 500 nM; for `Cc1cc(C(O)C2CCCN(C)C2)nnc1-c1ccc(C(F)(F)F)cc1CC(F)(F)F` (stereo not drawn) [Compound 21, (5-methyl-6-(2-(2,2,2-trifluoroethyl)-4-(trifluoromethyl)phenyl)pyridazin-3-yl)(1-methylpiperidin-3-yl)methanol], 500 to 3000 nM.

As for `Cc1cc(C(O)C2CCCN(C)C2)nnc1-c1ccc2occc2c1` (stereo not drawn) [Compound 16, (6-(benzofuran-5-yl)-5-methylpyridazin-3-yl)(1-methylpiperidin-3-yl)methanol], the IC50 is less than 500 nM. In the case of `CCN1CCCC(C(O)c2cc(C)c(-c3ccc4c(F)c[nH]c4c3)nn2)C1` (stereo not drawn) [Compound 10, (1-ethylpiperidin-3-yl)(6-(3-fluoro-1H-indol-6-yl)-5-methylpyridazin-3-yl)methanol] it was less than 500 nM; in that of `Cc1cc([C@H](O)[C@@H]2CCCN(C)C2)nnc1-c1ccc(C(F)(F)F)cc1` [Compound 28, (R)-(5-methyl-6-(4-(trifluoromethyl)phenyl)pyridazin-3-yl)((R)-1-methylpiperidin-3-yl)methanol], 500 to 3000 nM; in that of `CCN1CCC[C@@H]([C@@H](O)c2cc(C)c(-c3ccc(C(F)(F)F)cc3OC(F)F)nn2)C1` [Compound 33, (R)-(6-(2-(difluoromethoxy)-4-(trifluoromethyl)phenyl)-5-methylpyridazin-3-yl)((R)-1-ethylpiperidin-3-yl)methanol], less than 500 nM.

The values above are taken from US20260272920A1, “NLRP3 MODULATORS” (Zomagen Biosciences Ltd, priority 2023, published 2026).
